Laboratory results as given in US9351955B2, “Compounds and pharmaceutical compositions thereof for the treatment of cystic fibrosis” (Galapagos NV, priority 2013, dated 2016).
pEC50: −log10 of the molar value.

Tests used:
[1] = target: T1, CFTR ΔF508 mutant (Homo sapiens, UniProt P13569, DEL508-508); assay: YFP-halide influx assay for the CFTR-ΔF508 mutation (96 well, CFBE41o- cells); format: cell-based; details: compounds of the invention, 96 well, forskolin 10.67 μM, read-out: EC50 measured by YFP-halide influx assay for the CFTR-ΔF508
T1 construct: expressed in transfected cells; host or cells: CFBE41o- (adenoviral transduction)
T1 sequence (P13569 with tags, fused parts or gaps DEL508-508): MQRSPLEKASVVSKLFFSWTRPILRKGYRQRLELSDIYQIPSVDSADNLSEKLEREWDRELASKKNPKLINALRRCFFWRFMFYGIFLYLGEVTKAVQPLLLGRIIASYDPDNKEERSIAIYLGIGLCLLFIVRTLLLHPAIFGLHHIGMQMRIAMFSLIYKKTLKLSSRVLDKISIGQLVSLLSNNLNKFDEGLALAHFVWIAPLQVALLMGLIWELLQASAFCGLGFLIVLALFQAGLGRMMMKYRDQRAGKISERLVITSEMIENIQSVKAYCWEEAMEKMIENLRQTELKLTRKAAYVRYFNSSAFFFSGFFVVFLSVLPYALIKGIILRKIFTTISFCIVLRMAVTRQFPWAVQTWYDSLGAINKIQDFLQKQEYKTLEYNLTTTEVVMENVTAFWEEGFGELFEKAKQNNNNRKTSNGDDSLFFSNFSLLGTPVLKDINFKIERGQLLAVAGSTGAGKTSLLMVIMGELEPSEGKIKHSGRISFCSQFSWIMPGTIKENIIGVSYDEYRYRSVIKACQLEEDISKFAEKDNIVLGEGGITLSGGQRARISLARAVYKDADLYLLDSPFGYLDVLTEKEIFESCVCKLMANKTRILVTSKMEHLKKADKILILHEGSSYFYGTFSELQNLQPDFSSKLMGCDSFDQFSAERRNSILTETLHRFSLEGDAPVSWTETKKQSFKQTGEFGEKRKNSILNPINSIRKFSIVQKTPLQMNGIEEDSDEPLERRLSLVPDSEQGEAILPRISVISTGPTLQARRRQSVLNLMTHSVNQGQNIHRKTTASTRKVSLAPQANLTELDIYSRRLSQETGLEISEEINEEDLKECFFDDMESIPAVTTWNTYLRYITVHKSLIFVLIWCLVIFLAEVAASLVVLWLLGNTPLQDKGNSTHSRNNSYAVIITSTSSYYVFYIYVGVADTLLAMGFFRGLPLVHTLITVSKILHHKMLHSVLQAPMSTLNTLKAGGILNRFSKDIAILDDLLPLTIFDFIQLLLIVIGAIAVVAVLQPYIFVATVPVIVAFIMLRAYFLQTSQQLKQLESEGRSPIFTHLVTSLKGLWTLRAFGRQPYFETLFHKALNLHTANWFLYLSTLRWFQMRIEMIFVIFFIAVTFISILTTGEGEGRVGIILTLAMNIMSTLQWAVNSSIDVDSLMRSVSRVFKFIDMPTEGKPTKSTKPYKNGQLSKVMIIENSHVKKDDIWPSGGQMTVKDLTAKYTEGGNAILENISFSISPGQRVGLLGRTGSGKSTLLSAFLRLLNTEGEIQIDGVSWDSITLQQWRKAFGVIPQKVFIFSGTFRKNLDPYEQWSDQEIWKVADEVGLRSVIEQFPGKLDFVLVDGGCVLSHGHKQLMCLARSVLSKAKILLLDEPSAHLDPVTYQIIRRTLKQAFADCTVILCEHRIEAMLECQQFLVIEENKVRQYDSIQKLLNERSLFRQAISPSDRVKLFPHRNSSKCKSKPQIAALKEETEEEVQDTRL
Procedure, shortened: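 CFBE41o- cells were adenovirally transduced with CFTR ΔF508 and the halide-sensitive YFP H148Q/I152L. They were then corrected either at 27 °C for 24 h or with a CFTR modulator for 24 h at 37 °C. After iodide injection, YFP quenching over 7 s was expressed as 1−F/F0, and EC50 was derived from the concentration–response plot.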

[2] = target: T1, CFTR ΔF508 mutant; assay: YFP-halide influx assay for the CFTR-ΔF508 mutation (384 well, CFBE41o- cells, FDSS/μCell); format: cell-based; details: forskolin 10.67 μM, fluorescence after 36 seconds, read-out: EC50 measured by YFP-halide influx assay for the CFTR-ΔF508
Procedure, shortened: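 CFBE41o- cells were adenovirally transduced with ΔF508 CFTR and the YFP H148Q/I152L reporter. Cells were then held 24 h at 27 °C or treated 24 h at 37 °C with a CFTR modulator. Iodide-induced quench was recorded for 2 min, and EC50 was derived from 1−F/F0 at 36 s against compound concentration.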

[3] = target: T2, CFTR G551D mutant (Homo sapiens, UniProt P13569, G551D); assay: YFP-halide influx assay for the CFTR-G551D mutation (HEK293 cells); format: cell-based; details: HEK293 cells expressing CFTR G551D and YFP reporter; forskolin 10.67 μM; read-out: EC50 measured by YFP-halide influx assay for the CFTR-G551D
T2 construct: expressed in transfected cells; host or cells: HEK293 (reverse transfection with plasmids)
T2 sequence (P13569 whole entry G551D): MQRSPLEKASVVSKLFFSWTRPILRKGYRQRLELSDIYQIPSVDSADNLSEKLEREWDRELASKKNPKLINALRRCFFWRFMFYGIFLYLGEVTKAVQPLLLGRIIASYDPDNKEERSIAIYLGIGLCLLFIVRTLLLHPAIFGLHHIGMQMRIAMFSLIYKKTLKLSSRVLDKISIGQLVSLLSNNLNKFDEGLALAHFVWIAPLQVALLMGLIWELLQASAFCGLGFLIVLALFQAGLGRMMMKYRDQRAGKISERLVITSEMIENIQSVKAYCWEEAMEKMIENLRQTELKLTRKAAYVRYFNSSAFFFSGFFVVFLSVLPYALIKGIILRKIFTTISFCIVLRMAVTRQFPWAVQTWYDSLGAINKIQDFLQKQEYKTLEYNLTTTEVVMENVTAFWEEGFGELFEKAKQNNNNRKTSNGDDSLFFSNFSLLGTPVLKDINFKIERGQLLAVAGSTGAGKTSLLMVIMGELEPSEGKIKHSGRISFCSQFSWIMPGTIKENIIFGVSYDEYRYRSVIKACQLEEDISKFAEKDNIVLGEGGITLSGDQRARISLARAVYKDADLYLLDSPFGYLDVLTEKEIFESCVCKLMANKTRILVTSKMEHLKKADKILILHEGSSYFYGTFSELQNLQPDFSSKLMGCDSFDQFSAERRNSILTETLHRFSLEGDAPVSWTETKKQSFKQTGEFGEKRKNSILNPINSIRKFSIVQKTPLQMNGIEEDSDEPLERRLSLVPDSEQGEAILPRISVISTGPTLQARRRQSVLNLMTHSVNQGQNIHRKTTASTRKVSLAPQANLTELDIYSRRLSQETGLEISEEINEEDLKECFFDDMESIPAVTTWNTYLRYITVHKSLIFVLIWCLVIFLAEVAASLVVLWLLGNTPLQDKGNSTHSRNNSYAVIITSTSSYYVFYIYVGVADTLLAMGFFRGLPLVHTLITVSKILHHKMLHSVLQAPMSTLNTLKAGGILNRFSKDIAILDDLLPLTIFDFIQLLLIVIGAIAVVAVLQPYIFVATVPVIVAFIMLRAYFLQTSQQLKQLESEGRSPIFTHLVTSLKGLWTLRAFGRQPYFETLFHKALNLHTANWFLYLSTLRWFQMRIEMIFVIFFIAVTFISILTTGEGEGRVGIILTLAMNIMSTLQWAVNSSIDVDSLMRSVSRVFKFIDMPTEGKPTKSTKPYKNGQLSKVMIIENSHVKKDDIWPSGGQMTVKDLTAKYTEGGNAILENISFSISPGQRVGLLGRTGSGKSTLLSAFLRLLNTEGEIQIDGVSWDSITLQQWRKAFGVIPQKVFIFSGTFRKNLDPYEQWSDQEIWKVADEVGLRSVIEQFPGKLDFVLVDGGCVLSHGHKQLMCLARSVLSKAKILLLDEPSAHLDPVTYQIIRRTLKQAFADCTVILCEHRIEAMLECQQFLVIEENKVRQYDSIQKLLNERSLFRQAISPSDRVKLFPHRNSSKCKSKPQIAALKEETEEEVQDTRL
Procedure, shortened: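 HEK293 cells reverse-transfected with CFTR G551D and halide-sensitive YFP, expressed 24 h at 37 °C. Iodide-induced fluorescence quench recorded for 7 s after I^− injection; response as 1−F/F0, EC50 from concentration plot.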

[4] = Lung distribution study; format: in vivo, Sprague-Dawley rats; details: male, Sprague-Dawley, rat, plasma, oral, 10 mg/kg, exposure values
Experimental: Sprague-Dawley rats (male, 5-6 weeks old) are obtained from Janvier (France). Rats are acclimatized for at least 5 days before treatment and are kept on a 12 h light/dark cycle. Temperature is maintained at approximately 22° C., and food and water are provided ad libitum. Two days before administration of the test compounds, rats may undergo surgery to place a catheter in the jugular vein under isoflurane anesthesia. After the surgery, rats are housed individually. Rats are deprived of food for at least 16 h before oral dosing and 6 h after. Water is provided ad libitum.
8.7.3. Lung Distribution Studies
Compounds are formulated in 0.5% methylcellulose and EtOH/PEG 200/Methylcellulose 0.5% (10/25/65 v/v/v) by the oral route. Test compounds are orally dosed as a single esophageal gavage at 10 mg/kg under a dosing volume of 5 mL/kg. Each group consists of 12 rats. At each time point, typically 1, 3, 6 and 24 h, animals are euthanized and blood and lung samples are collected. Whole blood samples are centrifuged at 1500 g for 10 min and the resulting plasma samples, along with the lung samples, are stored at −20° C. pending analysis.
8.7.4. Quantification of Compound Levels in Plasma and Lung Samples
Lung samples are milled in the presence of ceramic beads and proteins present in plasma and lung samples are precipitated with an organic solvent. Concentrations of each test compound are determined by an LC-MS/MS method in which the mass spectrometer is operated in positive or negative electrospray mode.
For each animal, the lung-to-plasma ratio is determined as the ratio between compound concentration in lung and in plasma. At each sampling time point, mean, standard error of the mean (sem) and coefficient of variation (CV %) are calculated using data from three animals.

[5] = target: CFTR G551D (Homo sapiens, UniProt P13569, G551D); assay: TECC assay, FRT cells stably transfected with G551D CFTR; format: cell-based; details: high expression CFTR-G551D cells, several values in a cell = repeat determinations
Sequence of CFTR G551D (P13569 whole entry G551D): as above
Experimental: 7.2.3. FRT-CFTR G551D Protocol
For G551D recordings, Fish Rat Thyroid (FRT) cells stably transfected with G551D CFTR (a low CFTR-G551D expressing cell line and a high expressing CFTR-G551D cell line from Rosalind Franklin University of medicine and science, Chicago, Ill.) are plated on Transwell supports (Costar 6.5 mm Diameter, […]). The cells are grown for 8-10 d under liquid-liquid interface conditions prior to electrophysiological readings. For electrophysiological recording, the FRT-G551D cells are mounted in the TECC heating plate for electrophysiological measurement and kept at 37° C. The epithelia are bathed in hepes buffered culturing medium without FBS on both the basolateral and apical sides. Apical amiloride is used to inhibit the endogenous ENaC currents while forkolin is applied on both apical and basolateral side to stimulate CFTR. After forskolin triggering, compounds are added on both sides to test their potential for increasing CFTR gating. Measurements are done during a 10 minute timeframe with recordings every 2 min. The increase in ISC is used as a measure for the increased CFTR activity, EC50 values can be generated by measuring impact of different concentrations of compound on ISC on the cells, for this purpose each transwell is treated with a different compound concentration. Inh-172, an inhibitor specific for CFTR, is used to test the specificity of the tested compounds.
When subjected to this protocol, the following EC50 are measured.

Row | pEC50 [1] | pEC50 [2] | pEC50 [3] | AUC(0-t) [4] | pEC50 [5] | Structure (SMILES)
1 | 7.81 | 7.99 | 6.72 | 290 ng·h/mL |  | CCc1cc(C(=O)Nc2sc3c(c2C(N)=O)CC(C)(C)OC3(C)C)n[nH]1 [Compound 17, N-(3-carbamoyl-5,5,7,7-tetramethyl-5,7-dihydro-4H-thieno[2,3-c]pyran-2-yl)-5-ethyl-1H-pyrazole-3-carboxamide]
2 | 8.38 | 8.65 | 7.09 | 439 ng·h/mL | 7.15 | CC1(C)Cc2c(sc(NC(=O)c3[nH]ncc3Cl)c2C(N)=O)C(C)(C)O1 [Compound 25, N-(3-carbamoyl-5,5,7,7-tetramethyl-5,7-dihydro-4H-thieno[2,3-c]pyran-2-yl)-4-chloro-1H-pyrazole-3-carboxamide]
